Source: PMC7438329 (Scientific Reports, 2020)
Structures can show the parent of a compound that is named as a salt. Where two headings read alike, the source gives them in different places.

Experiments:
[1] = tested on: zebrafish embryos; format: in vivo, zebrafish (Danio rerio)
[2] = tested on: zebrafish embryos; format: in vivo, zebrafish (Danio rerio); remark: listed apart in the source
Procedure: To this end, three zebrafish embryos were treated with a drug (10 ~ 100 μM) in a well of 96-well plate at the onset of 24 hpf and then assayed for touch responses at 27 and 48 hpf, when zebrafish embryos show tactile-induced short-distance forward movement and escape swimming, respectively.
Two chemical libraries from Kyoto University and Nagoya University, composed of total ~ 1,000 bioactive compounds, were used in this study. The 2 µl of chemical compounds (1 ~ 10 mM) dissolved in DMSO were diluted to 200 µl with E3 medium (5 mM NaCl, 0.17 mM KCl, 0.33 mM CaCl2, 0.33 mM MgSO4) and transferred to 96-well plate. Three zebrafish embryos (24 hpf) were transferred into each well of the plate and incubated in a 28.5 °C incubator. At 27 hpf, three embryos with a small amount of drug solution were transferred to a 90-mm dish containing 15 ml of E3 medium and subjected to touch response using forceps under a dissection microscope Leica MZ16. After this assay, embryos with a small amount of E3 solution were transferred back to the drug solution in 96-well plate and incubated in the 28.5 °C incubator. At 48 hpf, embryos were transferred to a 90-mm dish containing 15 ml of E3 medium again and subjected to the touch response.

[3] = biological target: T1, hGlyR α1 + hGlyRβb (Homo sapiens, UniProt P23415+P48167); test: two-electrode voltage-clamp of Xenopus oocytes expressing heteromeric human α1β GlyR; format: cell-based
T1 construct: Full-length cDNAs encoding zebrafish GlyR α1 and βb and human GlyR α1 and β subunits were used in this study; expressed in transfected cells; host or cells: Xenopus laevis oocytes injected with cRNA
T1 sequence (P48167 23-497, one chain of several): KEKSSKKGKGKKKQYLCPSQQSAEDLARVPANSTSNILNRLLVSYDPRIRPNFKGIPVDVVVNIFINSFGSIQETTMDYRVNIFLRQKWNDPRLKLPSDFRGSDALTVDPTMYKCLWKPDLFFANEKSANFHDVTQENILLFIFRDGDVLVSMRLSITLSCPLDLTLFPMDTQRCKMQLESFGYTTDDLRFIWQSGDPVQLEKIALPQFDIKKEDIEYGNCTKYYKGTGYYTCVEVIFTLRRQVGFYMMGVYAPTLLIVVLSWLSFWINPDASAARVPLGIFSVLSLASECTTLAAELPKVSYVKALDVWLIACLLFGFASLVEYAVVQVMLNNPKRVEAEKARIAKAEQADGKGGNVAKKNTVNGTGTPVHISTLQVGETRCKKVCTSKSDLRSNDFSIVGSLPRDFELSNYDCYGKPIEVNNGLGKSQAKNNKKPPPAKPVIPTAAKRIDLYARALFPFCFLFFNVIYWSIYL
Procedure: (§1) To assess the drug sensitivity of GlyRs, we employed electrophysiology using Xenopus oocytes.
(§2) We also investigated whether niflumic acid blocks human GlyRs.
(§3) Full-length cDNAs encoding zebrafish GlyR α1 and βb and human GlyR α1 and β subunits were used in this study. Capped cRNAs for expression in Xenopus laevis oocytes were synthesized from linearized templates using SP6 mMessage mMachine SP6 transcription kit (Thermo Fisher Scientific) as described previously. Oocytes were injected with five femtomoles of cRNA using a Nanoject II (Drummond Scientific). Oocytes were moved to 48-well plates in Barth’s solution (88 mM NaCl, 1 mM KCl, 2.4 mM NaHCO3, 0.33 mM Ca (NO3)2, 0.41 mM CaCl2, 0.82 mM MgSO4, 10 mM HEPES at pH 7.5 with NaOH, supplemented with 50 µg/ml gentamicin and 100 units/ml penicillin/streptomycin) and incubated at 18 °C for 24–48 h prior to recording. Oocyte recording solution (90 mM NaCl, 1 mM KCl, 2 mM CaCl2, 1 mM MgCl2, 10 mM HEPES at pH 7.5 with NaOH) and drug solutions of seven different concentrations were flew into the oocyte chamber using a BPS-8 solution switcher (ALA Scientific). Borosilicate electrodes had resistances of ~ 2.0 MΩ when filed with 3 M KCl. […] Signals were low-pass filtered at 10 Hz, and sampled at 100 Hz. […] Statistical significance was assessed using the pair-wise analysis of variance.

[4] = biological target: zGlyR α1 + zGlyRβb (Danio rerio, UniProt O93430+Q6DC22); test: two-electrode voltage-clamp of Xenopus oocytes expressing heteromeric zebrafish α1βb GlyR; format: cell-based
Chain of zGlyR α1 + zGlyRβb (Q6DC22 entry or part of it, one chain of several): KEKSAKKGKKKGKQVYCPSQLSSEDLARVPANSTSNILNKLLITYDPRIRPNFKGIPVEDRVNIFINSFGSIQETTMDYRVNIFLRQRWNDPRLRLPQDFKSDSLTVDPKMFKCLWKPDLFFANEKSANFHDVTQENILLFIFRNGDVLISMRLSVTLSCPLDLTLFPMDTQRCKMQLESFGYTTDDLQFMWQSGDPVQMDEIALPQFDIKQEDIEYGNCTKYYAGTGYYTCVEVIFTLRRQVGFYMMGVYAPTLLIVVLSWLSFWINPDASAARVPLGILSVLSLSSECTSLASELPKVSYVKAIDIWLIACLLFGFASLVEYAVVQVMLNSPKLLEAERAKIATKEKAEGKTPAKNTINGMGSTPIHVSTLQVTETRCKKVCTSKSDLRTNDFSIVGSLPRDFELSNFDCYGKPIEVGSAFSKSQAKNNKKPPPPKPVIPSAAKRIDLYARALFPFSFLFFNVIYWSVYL
Procedure: as §1, §3

[5] = biological target: T2, zebrafish GlyRs (Danio rerio, UniProt O93430); test: cell-based; format: cell-based; conditions: rounded value in discussion; read-out: IC50 values of GlyRs expressed in Xenopus oocytes
T2 sequence (O93430 25-444): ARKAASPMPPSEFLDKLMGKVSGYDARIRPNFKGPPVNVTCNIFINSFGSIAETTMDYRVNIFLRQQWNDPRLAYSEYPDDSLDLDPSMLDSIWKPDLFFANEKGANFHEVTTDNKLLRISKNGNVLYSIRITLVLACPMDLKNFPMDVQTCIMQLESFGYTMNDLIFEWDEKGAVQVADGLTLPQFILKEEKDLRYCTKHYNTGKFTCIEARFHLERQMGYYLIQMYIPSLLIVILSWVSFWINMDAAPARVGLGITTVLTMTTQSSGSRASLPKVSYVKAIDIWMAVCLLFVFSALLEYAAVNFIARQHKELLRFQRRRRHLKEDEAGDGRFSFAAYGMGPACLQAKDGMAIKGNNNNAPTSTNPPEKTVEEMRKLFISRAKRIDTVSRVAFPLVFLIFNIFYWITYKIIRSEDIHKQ
Procedure: as §3

[6] = biological target: T3, hGlyR α1 (Homo sapiens, UniProt P23415); test: two-electrode voltage-clamp of Xenopus oocytes expressing homomeric human α1 GlyR; format: cell-based
T3 construct: Full-length cDNAs encoding zebrafish GlyR α1 and βb and human GlyR α1 and β subunits were used in this study; expressed in transfected cells; host or cells: Xenopus laevis oocytes injected with cRNA
T3 sequence (P23415 29-457): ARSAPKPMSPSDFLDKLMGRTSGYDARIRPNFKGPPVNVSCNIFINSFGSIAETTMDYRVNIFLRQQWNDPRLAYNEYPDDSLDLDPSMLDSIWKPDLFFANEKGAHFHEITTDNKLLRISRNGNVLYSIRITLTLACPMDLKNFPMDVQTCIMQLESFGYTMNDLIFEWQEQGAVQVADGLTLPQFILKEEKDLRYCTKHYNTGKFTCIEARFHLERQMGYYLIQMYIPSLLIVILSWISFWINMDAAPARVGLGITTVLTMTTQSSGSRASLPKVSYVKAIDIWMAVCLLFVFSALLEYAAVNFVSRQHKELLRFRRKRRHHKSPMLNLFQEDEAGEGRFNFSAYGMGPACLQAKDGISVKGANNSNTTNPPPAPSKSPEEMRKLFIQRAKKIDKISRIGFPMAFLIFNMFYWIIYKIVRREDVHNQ
Procedure: as §1, §2, §3

[7] = biological target: T4, zGlyR α1 (Danio rerio, UniProt O93430); test: two-electrode voltage-clamp of Xenopus oocytes expressing homomeric zebrafish α1 GlyR; format: cell-based
T4 construct: Full-length cDNAs encoding zebrafish GlyR α1 and βb and human GlyR α1 and β subunits were used in this study; expressed in transfected cells; host or cells: Xenopus laevis oocytes injected with cRNA
T4 sequence (O93430 25-444): T2 sequence (O93430 25-444)
Procedure: as §1, §3

[8] = statement in discussion, no reference given; cited from earlier work
[9] = tested on: zebrafish embryos; test: video recording of zebrafish touch response at 48 hpf in the presence of drug; format: in vivo, zebrafish (Danio rerio); conditions: for tactile response of zebrafish embryos at 48 hpf: bath application 30 min: 70 μM strychnine, 5 mM picrotoxin, 200 μM nifedipine, 500 μM niflumic acid; for drug concentration efficient for inducing abnormal touch response: zebrafish embryos 48 hpf, bath application
Description: Tactile-evoked zebrafish movements in the presence of control 1% DMSO or drug were video recorded at 48 hpf using a dissection microscope. Touch responses elicited by tactile stimulation delivered to the tail with forceps were captured with a high-speed CCD camera at 200 frames per second (HAS-220, Ditect) as described previously.

[10] = tested on: homomeric α GlyRs; conditions: mammals; cited from earlier work
[11] = tested on: heteromeric αβ GlyRs; conditions: mammals; cited from earlier work
[12] = purchased drugs, several different concentrations
[13] = drug 10 ~ 100 μM, 1% DMSO, from 24 hpf, touch responses at 27 and 48 hpf
[14] = with 200 μM glycine, mean ± SEM, 10 oocytes
[15] = read-out: IC50 of inhibition of glycine current, with 200 μM glycine, mean ± SEM, 10 oocytes

CCCCCC[C@H]1C(=O)O[C@H](C)[C@H](NC(=O)c2cccc(NC=O)c2O)C(=O)O[C@@H](C)[C@@H]1OC(=O)CC(C)C [Antimycin A]
Response 2nd screening [1, 12]: Normal | Response 1st screening [2, 13]: Weird contraction

O=c1oc2ccccc2c(O)c1Cc1c(O)c2ccccc2oc1=O [Dicumarol]
Response 2nd screening [1, 12]: Normal | Response 1st screening [2, 13]: Weird contraction

Cc1c(-c2ccccc2)oc2c(C(=O)OCCN3CCCCC3)cccc2c1=O [Flavoxate hydrochloride]
Response 2nd screening [1, 12]: Normal | Response 1st screening [2, 13]: Weird contraction

CC(N)CCCC(C)(C)O (stereo not shown) [Heptaminol hydrochloride]
Response 2nd screening [1, 12]: Normal | Response 1st screening [2, 13]: Body shrinkage

Cc1cccc(Nc2ccccc2C(=O)O)c1C [Mefenamic acid]
Response 2nd screening [1, 12]: Normal | Response 1st screening [2, 13]: Body shrinkage

COC(=O)C1=C(C)NC(C)=C(C(=O)OC)C1c1ccccc1[N+](=O)[O-] [Nifedipine]
Response 2nd screening ([1]; zebrafish, in vivo): Body shrinkage | IC50 [3]: 130 ± 27 µM | Hill coeff of drug-mediated inhibition [3, 14]: 0.9 ± 0.2 | Response 1st screening ([2]; zebrafish, in vivo): Body shrinkage | Hill coeff of drug-mediated inhibition [4]: 0.4 ± 0.0 | IC50 [4]: 162 ± 24 µM | IC50 [5]: 200 µM | IC50 [6]: 171 ± 30 µM | Hill coeff of drug-mediated inhibition [6, 14]: 1.1 ± 0.2 | IC50 [7]: 239 ± 38 µM | Hill coeff of drug-mediated inhibition [7, 14]: 0.5 ± 0.1

O=C(O)c1cccnc1Nc1cccc(C(F)(F)F)c1 [Niflumic acid]
Response 2nd screening [1, 12]: Body shrinkage | IC50 [3]: 930 ± 111 µM | Hill coeff of drug-mediated inhibition [3, 14]: 1.1 ± 0.1 | Response 1st screening [2, 13]: Weird contraction | IC50 [4]: 426 µM | Hill coeff of drug-mediated inhibition [4, 14]: 0.9 ± 0.1 | IC50 [5]: 400 µM | solubility in water [8]: insoluble to water | IC50 [6]: 1070 µM | Hill coeff of drug-mediated inhibition [6, 14]: 1.1 ± 0.2 | tactile response of zebrafish embryos at 48 hpf [9]: touch-evoked shrinkage of the body | drug concentration efficient for inducing abnormal touch response [9]: 500 µM | IC50 [7]: 801 ± 91 µM | Hill coeff of drug-mediated inhibition [7, 14]: 0.5 ± 0.1

Cl.Cl.c1ccc2c3c([nH]c2c1)C1C2CCC(C4CCCNC42)N1CC3 (stereo not shown) [Nitrarine dihydrochloride]
Response 2nd screening [1, 12]: Normal | Response 1st screening [2, 13]: Weird contraction

COc1ccc(Cc2nccc3cc(OC)c(OC)cc23)cc1OC [Papaverine hydrochloride]
Response 2nd screening [1, 12]: Normal | Response 1st screening [2, 13]: Weird contraction

O=C1C[C@@H]2OCC=C3CN4CC[C@]56c7ccccc7N1[C@H]5[C@H]2[C@H]3C[C@H]46 [Strychnine]
Response 2nd screening [1, 12]: Body shrinkage | Hill coeff of drug-mediated inhibition [3]: 0.8 ± 0.1 | IC50 [3]: 0.092 ± 0.019 µM | Response 1st screening [2, 13]: Body shrinkage | Hill coeff of drug-mediated inhibition [6]: 1.0 ± 0.1 | IC50 [6]: 0.072 ± 0.012 µM | tactile response of zebrafish embryos at 48 hpf [9]: bilateral trunk contractions resulting in the shrinkage of the body | Hill coeff of drug-mediated inhibition [7]: 0.7 ± 0.2

NCC(=O)O [glycine, Glycine]
Hill coefficient of glycine-dependent gating [3]: 3.2 ± 0.2 | Hill coefficient of glycine-dependent gating [4]: 2.5 ± 0.2 | EC50 ([4]; read-out: EC50 of glycine-dependent gating): 163 µM | Hill coefficient of glycine-dependent gating [6]: 2.9 ± 0.1 | Hill coefficient of glycine-dependent gating ([7]; mean ± SEM, 10 oocytes): 2.7 ± 0.1 | EC50 ([7]; mean ± SEM, 10 oocytes, read-out: EC50 of glycine-dependent gating): 112 ± 10 µM

Picrotoxin
IC50 [3, 15]: 94 µM | Hill coeff of drug-mediated inhibition [3, 14]: **0.5 ± 0.1 | concentration of picrotoxin that blocks homomeric α GlyRs [10]: ~ 10 μM | Response 1st screening [2, 13]: failed to identify it | picrotoxin necessary to block heteromeric αβ GlyRs compared with homomeric α GlyRs [11]: ten folds more | Hill coeff of drug-mediated inhibition [4]: 0.9 ± 0.0 | IC50 ([4]; read-out: IC50 of inhibition of glycine current): 6.4 ± 0.3 µM | IC50 [5]: 6 µM | IC50 [6, 15]: 7.2 ± 0.9 µM | Hill coeff of drug-mediated inhibition [6, 14]: 0.9 ± 0.1 | tactile response of zebrafish embryos at 48 hpf [9]: shrinkage of the body | drug concentration efficient for inducing abnormal touch response [9]: 5000 µM | IC50 [7, 15]: 6.1 ± 0.3 µM | Hill coeff of drug-mediated inhibition [7, 14]: 1.2 ± 0.1
